In PMC10118179, “Tannic acid, an IL-1β-direct binding compound, ameliorates IL-1β-induced inflammation and cartilage degradation by hindering IL-1β-IL-1R1 interaction” (PLOS ONE, 2023):
pKd: −log10 of the molar value.

Molecular target: T1, Interleukin-1β (IL-1β) (Homo sapiens, UniProt P01584)
T1 construct: gene IL1B; recombinant human IL-1β
Experiment: SPR (Biacore T200, IL-1β immobilized on CM5 chip)
Assay type: binding

T1 sequence (P01584 117-269): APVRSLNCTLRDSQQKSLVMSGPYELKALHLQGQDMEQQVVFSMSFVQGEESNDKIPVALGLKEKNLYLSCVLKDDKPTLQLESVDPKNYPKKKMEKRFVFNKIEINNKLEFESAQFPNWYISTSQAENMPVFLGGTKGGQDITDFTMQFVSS

- pKd: 6.08
Compound: O=C(OC[C@H]1O[C@@H](OC(=O)c2cc(O)c(O)c(OC(=O)c3cc(O)c(O)c(O)c3)c2)[C@H](OC(=O)c2cc(O)c(O)c(OC(=O)c3cc(O)c(O)c(O)c3)c2)[C@@H](OC(=O)c2cc(O)c(O)c(OC(=O)c3cc(O)c(O)c(O)c3)c2)[C@@H]1OC(=O)c1cc(O)c(O)c(OC(=O)c2cc(O)c(O)c(O)c2)c1)c1cc(O)c(O)c(OC(=O)c2cc(O)c(O)c(O)c2)c1 [TA, Tannic acid]
